From ChEMBL document CHEMBL5131564, “Discovery of Potent and Selective Receptor-Interacting Serine/Threonine Protein Kinase 2 (RIPK2) Inhibitors for the Treatment of Inflammatory Bowel Diseases (IBDs)” (J Med Chem, 2022) come the findings set out here.

A short description of data set [1]: Toxicity in rat H9c2 cells assessed as inhibitory rate. It is filed as cell-based.
Data set [2] addresses T1, Receptor-interacting serine/threonine-protein kinase 1 (Homo sapiens) (UniProt Q13546).
T1 sequence (whole entry): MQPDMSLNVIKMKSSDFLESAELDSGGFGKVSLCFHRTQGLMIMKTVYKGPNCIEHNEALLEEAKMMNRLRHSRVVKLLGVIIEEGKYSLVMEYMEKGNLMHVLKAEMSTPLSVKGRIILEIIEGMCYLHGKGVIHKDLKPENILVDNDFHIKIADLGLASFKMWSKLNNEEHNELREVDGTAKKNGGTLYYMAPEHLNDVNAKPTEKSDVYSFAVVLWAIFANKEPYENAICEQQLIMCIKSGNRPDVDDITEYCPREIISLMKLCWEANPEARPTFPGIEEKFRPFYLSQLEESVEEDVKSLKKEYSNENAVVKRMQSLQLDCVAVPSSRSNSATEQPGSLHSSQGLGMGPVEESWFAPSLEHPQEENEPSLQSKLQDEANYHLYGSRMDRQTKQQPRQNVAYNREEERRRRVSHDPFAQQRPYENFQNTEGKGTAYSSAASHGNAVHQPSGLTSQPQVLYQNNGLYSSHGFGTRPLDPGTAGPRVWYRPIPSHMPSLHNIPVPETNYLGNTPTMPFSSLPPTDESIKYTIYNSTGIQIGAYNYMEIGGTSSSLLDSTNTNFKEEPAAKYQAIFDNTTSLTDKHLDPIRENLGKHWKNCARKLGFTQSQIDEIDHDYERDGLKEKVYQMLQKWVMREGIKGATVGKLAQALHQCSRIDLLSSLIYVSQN
Nature of the data set: Inhibition of human RIPK1 assessed as active kinase incubated for 120 mins in presence of [gamma33P]ATP at 1000 nM by scintillation counting based radiometry assay relative to control. On the set-up: scale not given: the % may be the effect or the level left.

Data set [3] is described as follows: Inhibition of MDP-stimulated TNFalpha production in mouse RAW264.7 cells at 100 nM incubated for 22 hrs by ELISA relative to control. It is filed as functional. (In general: An ELISA detects its analyte on a solid surface through an enzyme-linked reagent.)
Data set [4] in a line: Metabolic stability in human liver microsomes assessed as half life at 1 uM by LC/MS/MS analysis. It is filed as ADME, Microsome. On the technique in general: Liver microsomes are vesicles of endoplasmic reticulum, rich in cytochrome P450 enzymes.
Data set [5] can be described thus: Inhibition of LPS/MDP-stimulated TNFalpha production in C57BL/6J mouse BMDM cells by ELISA relative to control. Type of data set: functional, cell-based.
Data set [6] addresses Receptor-interacting serine/threonine-protein kinase 2 (Homo sapiens, UniProt O43353). Nature of the data set: Inhibition of human RIPK2 incubated for 120 mins in presence of [gamma33P]ATP by scintillation counting based radiometry assay.
The nature of data set [7]: Toxicity in rat H9c2 cells assessed as inhibitory rate at 10 uM relative to control. It is filed as cell-based.
The next data set deals with Mus musculus. Nature of the data set: Anti-inflammatory activity against DSS-induced acute ulcerative colitis C57BL/6 mouse model assessed as recovery of weight loss at 20 mg/kg, po for 6 consecutive days. It is filed as functional, organism-based.

Activity calls are given as the source filed them.

Sequence of Receptor-interacting serine/threonine-protein kinase 2 (O43353 whole entry): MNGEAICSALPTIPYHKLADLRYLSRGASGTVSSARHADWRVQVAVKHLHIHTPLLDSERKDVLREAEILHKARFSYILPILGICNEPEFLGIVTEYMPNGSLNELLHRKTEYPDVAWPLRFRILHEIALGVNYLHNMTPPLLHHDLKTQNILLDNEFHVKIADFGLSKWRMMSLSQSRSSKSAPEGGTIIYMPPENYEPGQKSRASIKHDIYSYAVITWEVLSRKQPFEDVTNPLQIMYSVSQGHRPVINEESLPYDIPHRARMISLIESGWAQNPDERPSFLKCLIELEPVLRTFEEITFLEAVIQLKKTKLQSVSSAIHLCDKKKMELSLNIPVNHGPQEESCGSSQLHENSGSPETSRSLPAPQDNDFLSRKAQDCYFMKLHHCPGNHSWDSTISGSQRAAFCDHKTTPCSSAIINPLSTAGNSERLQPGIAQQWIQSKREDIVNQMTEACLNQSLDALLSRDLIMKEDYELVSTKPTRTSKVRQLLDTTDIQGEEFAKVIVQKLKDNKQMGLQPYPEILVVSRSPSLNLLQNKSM

In the case of `Cc1ccc(-c2nn(C(C)(C)CNC(=O)c3ccncc3)c3ncnc(N)c23)cc1`, the values for the IC50 in data set [1], in data set [5] and in data set [6] were 13100 nM, 57.7 nM and 33.8 nM, respectively. In addition, the Activity in data set [2] is 95%. The inhibition at 0.1 µM in data set [3] came to 68%. In addition, the half-life at 1 µM in data set [4] is 33.8 min. The inhibition at 10 µM in data set [7] was 50%.

Consider `Cc1ccc(-c2cn([C@H]3CC[C@@H](N)CC3)c3ncnc(N)c23)c(Cl)c1`, for which the values for the IC50 in data set [1] and in data set [5] were 11400 nM and 2.3 nM, respectively. The result in the data set on Mus musculus was Active. The half-life at 1 µM in data set [4] was greater than 120 min.

The IC50 is the concentration needed to halve the response being measured. As usually defined, the inhibition is the percentage by which the read-out fell short of the control. A word on the half-life: it is the time needed for the level to fall by half in the phase considered.
